# Test results from US20030100109A1, “Methods and compositions for in vitro germination and propagation of polygonatum cirrhifolium royle” (priority 2001, published 2003).
# “And” between values parts separate entries of the source, which are not always exact repeats. Equal values may be shown once.
# Key:
# [1] = test system: Polygonatum cirrhifolium Royle secondary explants; experiment: De novo axillary bud differentiation and release of foliage leaves on MS medium with GA3, BAP and NAA; type: in vivo; conditions: for Percentage axillary buds producing leaves / Percentage secondary-explants producing axillary buds / Mean number of axillary buds per secondary explant: MS medium, after 16 weeks of culture; for Mean number of axillary buds per secondary explant: ± SE
# Excerpt: Cultures were maintained at 50-60% RH. Plants were subcultured every four weeks in both sets of experiments on the same media formulations. Observations were made periodically but final data was compiled after 16 weeks of culture. In still another embodiment of the present invention, results in table 4 and 5 show the influence of various concentrations and combinations of BAP, NAA and GA3 on the in vitro release of epicotyl dormancy indicated by the release of rosette of leaves and induction of de novo axillary bud differentiation and their sprouting at 20-24° C. under 10-16 hr photoperiod (2000-3500 lux) at 50-60% of RH. […] Each treatment consisted of 24 cultures. These were incubated at 20° C. under 16 hr photoperiod (2000 lux) at 60% RH. […] There is a concomitant increase in the elicitation of response with the increasing concentrations of GA3.
# [2] = test system: Polygonatum cirrhifolium Royle seeds; experiment: Induction of germination (hypocotyl emergence) on modified MS medium with GA3 at diurnal 30/20° C. in dark; type: in vivo; conditions: modified MS culture medium, 20/30° C. in dark
# Procedure: Ripe purplish berries from plants grown in the wild were collected and dehydrated for 15 days at room temperature (29° C.±2° C.). Seeds were collected from dehydrated berries and washed in tap water with 1-2 drops of Tween-20™ for 2 hours and rinsed three times in distilled water. Seeds were then surface sterilized with 0.1% mercuric chloride (HgCl2) for 3 minutes. Mercuric chloride was removed by washing seeds four times in sterile distilled water. Sterilized, rinsed seeds were placed on semi-solid culture medium in sterile disposable plastic Petri plates (10 cm×2 cm). Macro and micro nutrients in the basal medium were that of Murashige and Skoog's (Murashige, T. and Skoog, F. […]. Physiol Plant 15: 433 -497) but modified to contain 2.2 g/L NH4NO3, 2.0 g/L KNO3, 0.44 g/l CaCl2.2H2O, 0.37 g/L MgSO4.7H20, 0.17 g/L KH2PO4, 37.25 mg/L Na2 EDTA, 27.8 mg/L FeSO4.7H20, 0.83 mg/L KI, 6.2 mg/L H3BO3, 22.3 mg/L MnSO4.4H20, 8.6 mg/L ZnSO4.7H20, 0.25 mg/L Na2 MoO4.2H20, 0.025 mg/L CuSO4.5H2O, 0.025 mg/L CoCl2.6H20. This medium was supplemented with 250 mg/L myo-inosital, 0.5 mgl/l nicotinic acid, 0.5 mg/L pyridoxine HCl, 3 mg/L thiamine HCl, 2 mg/L glycine, 30 g/L sucrose, 7.5 g/L agar and 2, 10, 25, and 50 mg/L gibberellic acid. The pH of the medium was adjusted to 5.8 before adding agar. Medium was sterilized at 121° C. (15 lb. psi pressure) for 20 minutes. […] Seeds with emerged hypocotyl were transferred under aseptic conditions to the above defined basal culture medium containing gibberellic acid at 5, 25, 50 and 100 mg/L. Transferred plants were incubated in an environment having 8-16-hr days under about 2000 lux of light and about 8-16-hr nights in total darkness at a constant temperature of 20° C. ([…]) and at 50-60% RH. Illumination was provided by 40-watt cool, white fluorescent tubes. Germination synchronization as indicated by differentiated epicotyl with emergent coleoptile and radicle was recorded on daily basis. Tables 1 and 2 show the induction of germination as indicated by the emergence of hypocotyl at temperature of 30° C. (±2° C.; dark; RH 50-60%) and diurnal temperature of 30/20° C. (±2° C.; dark; RH 50-60%). In this experiment also there were 4 treatments with varying levels of GA3 2-50 mg/L. Supplemented to the modified MS basal culture medium containing of 2.2 g/L NH4NO3, 2.0 g/L KNO3, 0.44 g/l CaCl2.2H2O, 0.37 g/L MgSO4.7H20, 0.17 g/L KH2PO4, 37.25 mg/L Na2 EDTA, 27.8 mg/L FeSO4.7H20, 0.83 mg/L KI, 6.2 mg/L H3BO3, 22.3 mg/L MnSO4.4H20, 8.6 mg/L ZnSO4.7H20, 0.25 mg/L Na2 MoO4.2H20, 0.025 mg/L CuSO4.5H2O, 0.025 mg/L CoCl2.6H20, […], 0.5 mg/L nicotinic acid, 0.5 mg/L pyridoxine HCl, 3 mg/L thiamine HCl, 2 mg/L glycine, 30 g/L sucrose and 7.5 g/L agar. Cultures were incubated under diurnal temperature regime of 30/20° C. (dark). Each treatment consisted of 15 replicates with 5 seeds in each. Germination is induced in all the treatments (table 2). Maximum germination of 62.12% is obtained at 50 mg/L Of GA3.
# [3] = GA3 1. mg/L in combination and 1.0 mg/L of NAA
# [4] = GA3 5. mg/L in combination and 1.0 mg/L of NAA
# [5] = GA3 10. mg/L in combination and 1.0 mg/L of NAA
# [6] = GA3 15. mg/L in combination and 1.0 mg/L of NAA
# [7] = GA3 20. mg/L in combination and 1.0 mg/L of NAA
smiles,measurement,setting,value
"C=C1C[C@]23C[C@@]1(O)CC[C@H]2[C@@]12C=C[C@H](O)[C@@](C)(C(=O)O1)[C@H]2[C@@H]3C(=O)O [GA3, gibberellic acid]",Percentage axillary buds producing leaves,[1]; [3],37.03%
same,Percentage secondary-explants producing axillary buds,[1]; [3],16.67%
same,Mean number of axillary buds per secondary explant,[1]; [3],2.70 ± 0.70
same,Remarks,"[1]; GA3 1. mg/L in combination and 1.0 mg/L of NAA, remark wraps over r12-r14: Epicotylar bulge swells forms rhizomatous base",Epicotylar bulge
same,Percentage axillary buds producing leaves,[1]; [4],46.58— %
same,Percentage secondary-explants producing axillary buds,[1]; [4],70.83%
same,Mean number of axillary buds per secondary explant,[1]; [4],6.44 ± 1.04
same,Percentage axillary buds producing leaves,[1]; [5],66.22%
same,Percentage secondary-explants producing axillary buds,[1]; [5],87.50%
same,Mean number of axillary buds per secondary explant,[1]; [5],9.06 ± 2.00
same,Percentage axillary buds producing leaves,[1]; [6],77.12%
same,Percentage secondary-explants producing axillary buds,[1]; [6],100.00%
same,Mean number of axillary buds per secondary explant,[1]; [6],11.67 ± 1.96
same,Percentage axillary buds producing leaves,[1]; [7],97.03%
same,Percentage secondary-explants producing axillary buds,[1]; [7],100.00%
same,Mean number of axillary buds per secondary explant,[1]; [7],8.96 ± 2.01
same,Remarks,"[1]; GA3 20. mg/L in combination and 1.0 mg/L of NAA, remark wraps over r18-r20: Rhizomatous base, callus induction",Rhizomatous
same,Duration of germination,[2]; GA3 2 mg/L,32-73
same,Percent germination,[2]; GA3 2 mg/L,12.41 ± 6.17%
same,Duration of germination,[2]; GA3 10 mg/L,34-72
same,Percent germination,[2]; GA3 10 mg/L,18.06 ± 4.32%
same,Duration of germination,[2]; GA3 25 mg/L,27-63
same,Percent germination,[2]; GA3 25 mg/L,46.00 ± 5.11%
same,Duration of germination,[2]; GA3 50 mg/L,23-58
same,Percent germination,[2]; GA3 50 mg/L,62.12% and 62.12 ± 3.66%
